# Test results from the supplement of paper PMC11451515.
# Tested on: NOMO1
# Experiment: cell viability relative to DMSO control; higher = less cytotoxic
# Conditions: 48 h
# Summary of the method: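 Before seeding, each leukemia line was adapted for at least four passages in each medium. NOMO1 or SEM cells (500 cells/well) and P12-Ichikawa cells (1000 cells/well) went into 1536-well plates at 5 μl, then received library compounds in DMSO by pin dosing across 11 threefold concentrations, 47 μM to 0.79 nM. Readout was CellTiter-Glo One luminescence after 48 h at 37°C, and viability is given as a per-plate percentage of DMSO wells, with cell-free wells as background.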
# [1] = HPLM + 10% dialyzed FBS, 0.000781 µM
# [2] = HPLM + 10% dialyzed FBS, 0.00234 µM
# [3] = HPLM + 10% dialyzed FBS, 0.00702 µM
# [4] = HPLM + 10% dialyzed FBS, 0.0211 µM
# [5] = HPLM + 10% dialyzed FBS, 0.0632 µM
# [6] = HPLM + 10% dialyzed FBS, 0.19 µM
# [7] = HPLM + 10% dialyzed FBS, 0.569 µM
# [8] = HPLM + 10% dialyzed FBS, 1.71 µM
# [9] = HPLM + 10% dialyzed FBS, 5.12 µM
# [10] = HPLM + 10% dialyzed FBS, 15.4 µM
# [11] = HPLM + 10% dialyzed FBS, 46.1 µM
# [12] = RPMI 5 mM glucose + 10% FBS, 0.000781 µM
# [13] = RPMI 5 mM glucose + 10% FBS, 0.00234 µM
# [14] = RPMI 5 mM glucose + 10% FBS, 0.00702 µM
# [15] = RPMI 5 mM glucose + 10% FBS, 0.0211 µM
# [16] = RPMI 5 mM glucose + 10% FBS, 0.0632 µM
# [17] = RPMI 5 mM glucose + 10% FBS, 0.19 µM
# [18] = RPMI 5 mM glucose + 10% FBS, 0.569 µM
# [19] = RPMI 5 mM glucose + 10% FBS, 1.71 µM
# [20] = RPMI 5 mM glucose + 10% FBS, 5.12 µM
# [21] = RPMI 5 mM glucose + 10% FBS, 15.4 µM
# [22] = RPMI 5 mM glucose + 10% FBS, 46.1 µM
# [23] = RPMI 5 mM glucose + 10% dialyzed FBS, 0.000781 µM
# [24] = RPMI 5 mM glucose + 10% dialyzed FBS, 0.00234 µM
# [25] = RPMI 5 mM glucose + 10% dialyzed FBS, 0.00702 µM
# [26] = RPMI 5 mM glucose + 10% dialyzed FBS, 0.0211 µM
# [27] = RPMI 5 mM glucose + 10% dialyzed FBS, 0.0632 µM
# [28] = RPMI 5 mM glucose + 10% dialyzed FBS, 0.19 µM
# [29] = RPMI 5 mM glucose + 10% dialyzed FBS, 0.569 µM
# [30] = RPMI 5 mM glucose + 10% dialyzed FBS, 1.71 µM
# [31] = RPMI 5 mM glucose + 10% dialyzed FBS, 5.12 µM
# [32] = RPMI 5 mM glucose + 10% dialyzed FBS, 15.4 µM
# [33] = RPMI 5 mM glucose + 10% dialyzed FBS, 46.1 µM
Compound,cell viability [1] [%],cell viability [2] [%],cell viability [3] [%],cell viability [4] [%],cell viability [5] [%],cell viability [6] [%],cell viability [7] [%],cell viability [8] [%],cell viability [9] [%],cell viability [10] [%],cell viability [11] [%],cell viability [12] [%],cell viability [13] [%],cell viability [14] [%],cell viability [15] [%],cell viability [16] [%],cell viability [17] [%],cell viability [18] [%],cell viability [19] [%],cell viability [20] [%],cell viability [21] [%],cell viability [22] [%],cell viability [23] [%],cell viability [24] [%],cell viability [25] [%],cell viability [26] [%],cell viability [27] [%],cell viability [28] [%],cell viability [29] [%],cell viability [30] [%],cell viability [31] [%],cell viability [32] [%],cell viability [33] [%]
COc1cc([C@@H]2c3cc4c(cc3[C@@H](O)C3COC(=O)C32)OCO4)cc(OC)c1O (stereo partly drawn),88.8,100,101,37,94.3,53.1,37.9,45.9,30.5,30.3,28.2,81.3,95.6,85.7,17.6,92,82.7,20.5,22.1,19.7,20.3,19.6,88.1,95.3,91.5,32.1,90.8,73.3,25.7,26.2,22.9,23,22.3
CCCCC(F)(F)[C@@]1(O)CC[C@H]2[C@@H](CC(=O)[C@@H]2CCCCCCC(=O)O)O1,,,,,,,,,,,,123,123,126,115,118,117,115,108,121,111,103,,,,,,,,,,,
Cc1ccc(Nc2nccc(N(C)c3ccc4c(C)n(C)nc4c3)n2)cc1[S+](N)(=O)[O-],107,118,102,112,121,129,126,112,132,112,50.9,93.9,101,92.1,103,99.5,101,107,114,105,100,50.3,95.8,92.1,102,85.4,104,112,105,123,110,97.2,71.1
O=C(O)CCCc1ccc(N(CCCl)CCCl)cc1,111,119,119,143,118,151,109,134,138,123,86.4,115,110,134,135,127,132,146,132,141,135,61.4,119,125,131,125,130,125,129,108,152,141,63.9
COc1cc2nc(N3CCN(C(=O)c4ccco4)CC3)nc(N)c2cc1OC,77.8,103,93.7,97,98.3,105,105,92.8,91.8,43,5.27,72.1,78.4,81.6,83.9,87.5,91.9,82.2,85.1,90.7,95.9,4.8,72,83.6,82.1,80.5,90,92.2,95.2,98.2,80.4,88.4,4.29
CON(C)C(=O)N1\N=C(/S[C@]1(CCCN)C2=CC=CC=C2)C3=CC(=CC=C3F)F,65,41.6,39.2,46.7,46.2,40.4,30.8,37.2,32.1,24.7,24.1,55.1,22.8,26.3,27.1,21.7,20,23.4,22.8,20.6,15.6,15.7,96,30.7,36.8,35,32.2,31.2,27.9,32.6,28.5,22.6,22.5
COC1=CC(=C2C(=O)N(COC/3=C/C(=O)N4\C=C/C=C(OCCN5CCCCC5)\C4=N3)[S+]([O-])(=O)C2=C1)C(C)C,,,,,,,,,,,,121,123,127,134,132,127,129,140,141,140,127,,,,,,,,,,,
O=C(N[C@H]1CN2CCC1CC2)c1ccc(Cl)cc1,91.3,106,110,138,123,127,118,107,127,103,68.1,97.8,97.1,103,101,114,103,103,94.8,92.2,102,98.3,107,101,97.2,91.4,108,109,103,92.2,103,106,109
COc1cc([S+](C)(=O)[O-])ccc1Nc1nc2ccc(-c3ccc(NC(=O)[C@H](C)c4ccc(F)cc4)cc3)cn2n1,104,120,139,146,157,137,139,99.3,109,101,100,106,129,122,131,134,123,124,92.4,101,94.9,97.2,114,117,123,130,120,136,129,92.7,96.3,96.1,88.8
